From patent US20260365670A1, “EGFR INHIBITORS AND USES THEREOF” (DIZAL (JIANGSU) PHARMACEUTICAL CO., LTD., priority 2022, published 2026)
Where two headings read alike, the source gives them in different places.

Columns and labels:
EGFR L858R = target: T1, EGFR L858R (Homo sapiens, UniProt P00533, L858R); assay: Inhibition of EGFR L858R biochemical enzymatic activity (HTRF); conditions: 1 mM ATP, 1 h at room temperature, read-out: IC50 @L858R
T1 construct: purchased Carna Bio
How it was run: (§1)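 In a buffer with 5 mM MgCl2, 1 mM MnCl2, 1 mM DTT and 0.01% CHAPS, enzyme turnover of 1 μM biotinylated TK substrate at 1 mM ATP is followed by HTRF after 1 h at room temperature. IC50 is obtained by a four-parameter fit.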

EGFR (d746-750 C797S) = target: T2, EGFR (d746-750 C797S) (Homo sapiens, UniProt P00533, C797S/DEL746-750); assay: Inhibition of EGFR (d746-750 C797S) biochemical enzymatic activity (HTRF); conditions: EGFR (d746-750 C797S), 1 mM ATP, 1 h at room temperature, read-out: IC50 @Del19-C797S
T2 construct: purchased signalchem
How it was run: as §1

EGFR[T790M/C797S/L858R] = target: T3, EGFR[T790M/C797S/L858R] (Homo sapiens, UniProt P00533, C797S/L858R/T790M); assay: Inhibition of EGFR[T790M/C797S/L858R] biochemical enzymatic activity (HTRF); conditions: EGFR[T790M/C797S/L858R], 1 mM ATP, 1 h at room temperature, read-out: IC50 @T790M- C797S - L858R
T3 construct: purchased Carna Bio
T3 sequence (P00533 25-1210 T790M/C797S/L858R): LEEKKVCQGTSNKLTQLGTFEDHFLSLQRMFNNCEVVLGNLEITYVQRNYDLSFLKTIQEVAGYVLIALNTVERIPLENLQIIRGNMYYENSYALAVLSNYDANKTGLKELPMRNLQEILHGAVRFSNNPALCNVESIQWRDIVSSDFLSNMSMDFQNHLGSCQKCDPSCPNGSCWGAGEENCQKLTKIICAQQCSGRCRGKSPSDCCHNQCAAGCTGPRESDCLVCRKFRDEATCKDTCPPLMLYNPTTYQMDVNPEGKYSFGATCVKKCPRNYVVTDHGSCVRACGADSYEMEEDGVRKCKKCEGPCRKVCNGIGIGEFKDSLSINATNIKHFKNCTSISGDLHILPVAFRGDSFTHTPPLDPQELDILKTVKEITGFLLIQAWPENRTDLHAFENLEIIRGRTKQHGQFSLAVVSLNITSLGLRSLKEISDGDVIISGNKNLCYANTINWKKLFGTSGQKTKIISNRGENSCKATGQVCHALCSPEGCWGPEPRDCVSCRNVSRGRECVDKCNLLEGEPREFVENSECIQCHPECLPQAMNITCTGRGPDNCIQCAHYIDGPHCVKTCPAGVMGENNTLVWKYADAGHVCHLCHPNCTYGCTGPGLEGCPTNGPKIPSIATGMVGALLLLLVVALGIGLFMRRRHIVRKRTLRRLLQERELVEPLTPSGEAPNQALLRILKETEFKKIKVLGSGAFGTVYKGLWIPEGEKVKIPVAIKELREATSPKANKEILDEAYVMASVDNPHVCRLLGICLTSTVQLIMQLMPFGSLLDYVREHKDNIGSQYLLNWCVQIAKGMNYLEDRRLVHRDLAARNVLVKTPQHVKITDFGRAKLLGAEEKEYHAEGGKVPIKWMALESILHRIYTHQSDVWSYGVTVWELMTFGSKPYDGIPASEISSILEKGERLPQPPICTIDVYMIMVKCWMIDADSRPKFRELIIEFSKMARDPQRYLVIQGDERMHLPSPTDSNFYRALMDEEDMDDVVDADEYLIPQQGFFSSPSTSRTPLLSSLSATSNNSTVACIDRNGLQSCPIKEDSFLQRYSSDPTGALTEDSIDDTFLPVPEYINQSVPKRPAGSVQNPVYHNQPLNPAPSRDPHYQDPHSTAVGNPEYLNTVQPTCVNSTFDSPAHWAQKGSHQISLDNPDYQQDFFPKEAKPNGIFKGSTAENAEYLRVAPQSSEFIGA
How it was run: as §1

EGFR wild type = target: T4, EGFR wild type (Homo sapiens, UniProt P00533); assay: Inhibition of EGFR wild type biochemical enzymatic activity (HTRF); conditions: EGFR wild type, 1 mM ATP, 1 h at room temperature, read-out: IC50 @WT
T4 construct: purchased Carna Bio
T4 sequence (P00533 25-1210): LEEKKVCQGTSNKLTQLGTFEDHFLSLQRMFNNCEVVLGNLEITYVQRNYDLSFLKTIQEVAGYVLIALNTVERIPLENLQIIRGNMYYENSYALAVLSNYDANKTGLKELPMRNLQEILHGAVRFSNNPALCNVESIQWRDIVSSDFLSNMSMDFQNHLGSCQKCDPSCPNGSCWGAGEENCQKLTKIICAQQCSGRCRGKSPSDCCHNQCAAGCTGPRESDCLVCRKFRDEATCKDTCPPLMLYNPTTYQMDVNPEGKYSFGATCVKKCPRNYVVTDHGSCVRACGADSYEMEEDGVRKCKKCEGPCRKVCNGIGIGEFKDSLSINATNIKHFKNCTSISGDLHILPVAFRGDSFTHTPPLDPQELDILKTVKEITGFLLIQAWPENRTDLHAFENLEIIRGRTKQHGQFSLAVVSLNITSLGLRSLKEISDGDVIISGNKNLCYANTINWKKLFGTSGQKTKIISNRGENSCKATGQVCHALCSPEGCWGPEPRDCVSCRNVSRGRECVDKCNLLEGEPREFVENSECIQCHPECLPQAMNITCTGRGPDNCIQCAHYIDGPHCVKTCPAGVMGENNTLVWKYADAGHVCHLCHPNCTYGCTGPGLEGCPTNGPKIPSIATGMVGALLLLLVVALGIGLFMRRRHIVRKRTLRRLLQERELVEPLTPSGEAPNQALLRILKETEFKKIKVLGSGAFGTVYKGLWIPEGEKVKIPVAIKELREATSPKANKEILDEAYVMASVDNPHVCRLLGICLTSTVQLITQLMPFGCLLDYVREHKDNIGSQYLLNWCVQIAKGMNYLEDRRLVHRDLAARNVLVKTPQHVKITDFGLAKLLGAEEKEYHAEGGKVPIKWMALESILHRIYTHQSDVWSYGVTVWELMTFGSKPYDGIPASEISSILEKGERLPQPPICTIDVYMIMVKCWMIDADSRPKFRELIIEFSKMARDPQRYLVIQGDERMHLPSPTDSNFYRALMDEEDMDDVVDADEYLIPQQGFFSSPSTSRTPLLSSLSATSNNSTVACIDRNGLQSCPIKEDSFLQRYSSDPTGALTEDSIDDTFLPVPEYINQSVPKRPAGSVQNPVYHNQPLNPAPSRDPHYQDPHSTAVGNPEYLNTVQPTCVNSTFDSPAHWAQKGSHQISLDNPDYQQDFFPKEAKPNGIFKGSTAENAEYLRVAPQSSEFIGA
How it was run: as §1

EGFR Exon19Del/T790M = target: T5, EGFR Exon19Del/T790M (Homo sapiens, UniProt P00533, DEL746-750/T790M); assay: Inhibition of EGFR Exon19Del/T790M biochemical enzymatic activity (HTRF); conditions: EGFR Exon19Del/T790M, 1 mM ATP, 1 h at room temperature, read-out: IC50 @Del19-T790M
T5 construct: purchased Carna Bio
T5 sequence (P00533 with tags, fused parts or gaps DEL746-750/T790M limits assumed): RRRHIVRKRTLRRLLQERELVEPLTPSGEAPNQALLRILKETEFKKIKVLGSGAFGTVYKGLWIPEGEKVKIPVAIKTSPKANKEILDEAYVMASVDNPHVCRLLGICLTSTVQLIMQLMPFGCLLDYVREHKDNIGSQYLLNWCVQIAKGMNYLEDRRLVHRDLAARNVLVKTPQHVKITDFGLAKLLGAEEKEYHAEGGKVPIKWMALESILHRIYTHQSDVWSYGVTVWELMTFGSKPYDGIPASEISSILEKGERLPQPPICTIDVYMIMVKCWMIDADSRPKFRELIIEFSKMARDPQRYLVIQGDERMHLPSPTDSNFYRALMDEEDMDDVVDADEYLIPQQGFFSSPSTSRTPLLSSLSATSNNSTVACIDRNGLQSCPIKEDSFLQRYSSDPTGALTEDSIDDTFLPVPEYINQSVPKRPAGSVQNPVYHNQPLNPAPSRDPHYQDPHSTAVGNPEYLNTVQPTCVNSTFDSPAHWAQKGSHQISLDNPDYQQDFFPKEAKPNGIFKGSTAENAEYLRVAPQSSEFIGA
How it was run: as §1

EGFR Exon19Del = target: T6, EGFR Exon19Del (Homo sapiens, UniProt P00533, DEL746-750); assay: Inhibition of EGFR Exon19Del biochemical enzymatic activity (HTRF); conditions: EGFR Exon19Del, 1 mM ATP, 1 h at room temperature, read-out: IC50 @Del19
T6 construct: purchased Carna Bio
How it was run: as §1

EGFR (C797S L858R) = target: T7, EGFR (C797S L858R) (Homo sapiens, UniProt P00533, C797S/L858R); assay: Inhibition of EGFR (C797S L858R) biochemical enzymatic activity (HTRF); conditions: EGFR (C797S L858R), 1 mM ATP, 1 h at room temperature, read-out: IC50 @L858-C797S
T7 construct: purchased signalchem
T7 sequence (P00533 25-1210 C797S/L858R): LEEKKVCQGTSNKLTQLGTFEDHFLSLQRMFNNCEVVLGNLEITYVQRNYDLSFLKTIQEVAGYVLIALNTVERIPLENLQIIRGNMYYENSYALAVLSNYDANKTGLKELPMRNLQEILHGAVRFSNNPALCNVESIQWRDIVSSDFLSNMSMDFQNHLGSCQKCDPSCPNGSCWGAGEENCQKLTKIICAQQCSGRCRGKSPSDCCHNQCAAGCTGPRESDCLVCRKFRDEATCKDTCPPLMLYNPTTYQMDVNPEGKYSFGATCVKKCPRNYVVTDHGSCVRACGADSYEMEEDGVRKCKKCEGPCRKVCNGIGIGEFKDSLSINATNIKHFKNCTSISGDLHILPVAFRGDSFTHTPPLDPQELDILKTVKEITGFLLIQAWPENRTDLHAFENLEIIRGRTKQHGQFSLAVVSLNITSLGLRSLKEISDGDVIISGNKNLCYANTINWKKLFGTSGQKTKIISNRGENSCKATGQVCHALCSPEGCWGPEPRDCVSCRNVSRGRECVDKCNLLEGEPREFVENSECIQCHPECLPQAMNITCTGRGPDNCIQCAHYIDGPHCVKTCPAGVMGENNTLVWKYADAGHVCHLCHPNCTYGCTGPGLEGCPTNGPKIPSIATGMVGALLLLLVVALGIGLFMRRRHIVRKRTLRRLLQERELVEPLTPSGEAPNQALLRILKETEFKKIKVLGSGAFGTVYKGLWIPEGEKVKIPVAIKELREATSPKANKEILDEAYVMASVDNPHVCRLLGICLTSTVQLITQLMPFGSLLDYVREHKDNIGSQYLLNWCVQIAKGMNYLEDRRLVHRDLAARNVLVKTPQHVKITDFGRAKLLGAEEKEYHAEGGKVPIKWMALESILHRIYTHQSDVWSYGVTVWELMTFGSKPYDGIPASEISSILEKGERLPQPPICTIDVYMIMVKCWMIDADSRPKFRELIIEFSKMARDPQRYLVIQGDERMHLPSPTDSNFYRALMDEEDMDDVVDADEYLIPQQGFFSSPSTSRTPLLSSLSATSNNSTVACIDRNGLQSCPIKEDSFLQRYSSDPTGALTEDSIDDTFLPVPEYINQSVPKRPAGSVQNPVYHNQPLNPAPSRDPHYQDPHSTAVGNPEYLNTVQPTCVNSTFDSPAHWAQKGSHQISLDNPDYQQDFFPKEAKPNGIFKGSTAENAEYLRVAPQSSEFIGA
How it was run: as §1

EGFR L858R/T790M = target: T8, EGFR L858R/T790M (Homo sapiens, UniProt P00533, L858R/T790M); assay: Inhibition of EGFR L858R/T790M biochemical enzymatic activity (HTRF); conditions: EGFR L858R/T790M, 1 mM ATP, 1 h at room temperature, read-out: IC50 @L858R-T790M
T8 construct: purchased Carna Bio
How it was run: as §1

A-431 = assay: Cell proliferation assay, A-431 cells (GI50, Table 6); type: cell-based
Description: [Worded in the source for another cell line; this cell line is reported under the same test.] Ba/F3 cells expressing EGFR mutations were seeded in 384-well plates at 5000 cells/well in RPMI1640 medium containing […]. PC-9 at 500 cells/well was seeded into 384-well plates in RPMI1640 medium with 10% FBS. After overnight incubation, the assay plates were dosed with compounds at a series of concentrations. Alongside dosing the assay plates, the day 0 plate was processed using CellTiter-Glo® Luminescent Cell Viability Assay (Promega) to measure the number of viable cells (G0). The assay plates were further incubated for 72 hours and the number of viable cells (G3) was measured. The percentage of proliferation was calculated as: […]=100×(G3 value of sample well−G0 value)/(G3 value of DMSO control−G0 value). The concentration of compound producing 50% proliferation inhibition (GI50) was further calculated in best-fit curves using XLFit software. N/A=not available.

PC-9 = assay: Cell proliferation assay, PC-9 cells (CellTiter-Glo, 72 hours); type: cell-based; conditions: PC9 cells, read-out: GI50 PC9
How it was run: (§2)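 In RPMI1640 medium (PC-9 with 10% FBS), each cell line was seeded at its own density: Ba/F3 5000 and PC-9 500 per well. A compound series was added the next day, with a time-zero viability plate read in parallel. Percent proliferation was subtracted for G0 and referenced to DMSO, and GI50 was derived by curve fitting.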

[1] = tested on: Ba/F3 cells expressing EGFR mutations; assay: Cell proliferation assay, Ba/F3 cells expressing EGFR mutations (CellTiter-Glo, 72 hours); type: cell-based
How it was run: as §2

[2] = target: T9, EGFR[T790M/C797S/d746-750] (Homo sapiens, UniProt P00533, C797S/DEL746-750/T790M); assay: Inhibition of EGFR[T790M/C797S/d746-750] biochemical enzymatic activity (HTRF); conditions: EGFR[T790M/C797S/d746-750], 1 mM ATP, 1 h at room temperature, read-out: IC50 @T790M - C797S - Del19
T9 construct: purchased Carna Bio
T9 sequence (P00533 with tags, fused parts or gaps DEL746-750/T790M/C797S limits assumed): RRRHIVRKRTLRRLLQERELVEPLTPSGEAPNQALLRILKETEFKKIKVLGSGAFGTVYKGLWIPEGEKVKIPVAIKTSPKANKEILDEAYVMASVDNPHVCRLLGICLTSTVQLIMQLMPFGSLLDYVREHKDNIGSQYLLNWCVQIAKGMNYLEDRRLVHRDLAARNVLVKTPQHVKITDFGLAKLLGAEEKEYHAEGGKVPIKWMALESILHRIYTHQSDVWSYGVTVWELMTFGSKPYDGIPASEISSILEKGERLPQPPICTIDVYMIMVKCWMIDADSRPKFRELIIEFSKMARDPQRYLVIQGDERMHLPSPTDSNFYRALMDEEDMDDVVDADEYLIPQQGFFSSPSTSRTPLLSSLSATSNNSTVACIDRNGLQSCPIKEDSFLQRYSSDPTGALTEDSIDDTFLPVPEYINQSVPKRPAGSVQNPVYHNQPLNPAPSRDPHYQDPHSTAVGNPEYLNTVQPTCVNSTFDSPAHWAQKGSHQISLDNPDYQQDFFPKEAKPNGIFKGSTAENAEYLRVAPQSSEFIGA
How it was run: as §1

[3] = BaF3 cells, EGFR DEL19 - C797S, read-out: GI50 DEL19 - C797S/BaF3
[4] = BaF3 cells, EGFR DEL19 - T790-C797S, read-out: GI50 DEL19 - T790-C797S/BaF3
[5] = BaF3 cells, EGFR L858R - C797S, read-out: GI50 L858R - C797S/BaF3
[6] = BaF3 cells, EGFR L858R - T790-C797S, read-out: GI50 L858R - T790-C797S/BaF3
[7] = BaF3 cells, EGFR L858R - T790M, read-out: GI50 L858R - T790M/BaF3
[8] = BaF3 cells, EGFR L858R, read-out: GI50 L858R/BaF3
[9] = EGFR DEL19 - T790M, read-out: GI50 DEL19 - T790M

Row | IC50 (EGFR L858R) [nM] | IC50 (EGFR (d746-750 C797S)) [nM] | IC50 (EGFR[T790M/C797S/L858R]) [nM] | IC50 (EGFR wild type) [nM] | IC50 (EGFR Exon19Del/T790M) [nM] | IC50 (EGFR Exon19Del) [nM] | IC50 (EGFR (C797S L858R)) [nM] | IC50 (EGFR L858R/T790M) [nM] | GI50 (A-431; A-431 cells) [nM] | GI50 (PC-9) [nM] | GI50 [1, 3] [nM] | GI50 [1, 4] [nM] | GI50 [1, 5] [nM] | GI50 [1, 6] [nM] | GI50 [1, 7] [nM] | GI50 [1, 8] [nM] | GI50 [1, 9] [nM] | IC50 [2] [nM] | further results | SMILES
1 | 64 | 1.7 | 1.5 | 1830 | 3.2 | 4.3 | 6 | 2.3 | 2080 | 10 | 2 | 2 | 11 | 2 | 2 | 17 | 7 | 1.6 |  | Cc1cc2cc(n1)-c1cnn(C)c1OCCN1CC3CCC(C3)(C1)n1c(nc3ccc(N4CCN(C5CC5)CC4)cc31)NC2=O (single isomer, unassigned) [Example B55B]
2 | > 5000 | 2050 | > 5000 | > 5000 | 100 | > 5000 | > 5000 | > 5000 | 7020 | 311 | 102 | 169 | 180 | 41 | 191 | 176 | 363 | 37 |  | Cc1cc2cc(n1)-c1cnn(C)c1OCCN1CC3CCC(C3)(C1)n1c(nc3ccc(N4CCC5(CCN(C)C5)CC4)cc31)NC2=O (single isomer, unassigned) [Example B52A]
3 | 378 | 14 | 5 | > 5000 | 9 | 30 | 185 | 13 |  |  |  |  |  |  |  |  |  | 6 | GI50 (A-431; Homo sapiens, A-431, A-431 cells): 6630 nM; GI50 (PC-9; Homo sapiens, PC-9, 72 h): 121 nM; GI50 ([1]; Mus musculus, BaF3, 72 h, BaF3 cells, EGFR DEL19 - C797S, read-out: GI50 DEL19 - C797S/BaF3): 10 nM; GI50 ([1]; Mus musculus, BaF3, 72 h, BaF3 cells, EGFR DEL19 - T790-C797S, read-out: GI50 DEL19 - T790-C797S/BaF3): 3 nM; GI50 ([1]; Mus musculus, BaF3, 72 h, BaF3 cells, EGFR L858R - C797S, read-out: GI50 L858R - C797S/BaF3): 108 nM; GI50 ([1]; Mus musculus, BaF3, 72 h, BaF3 cells, EGFR L858R - T790-C797S, read-out: GI50 L858R - T790-C797S/BaF3): 7 nM; GI50 ([1]; Mus musculus, BaF3, 72 h, BaF3 cells, EGFR L858R - T790M, read-out: GI50 L858R - T790M/BaF3): 20 nM; GI50 ([1]; Mus musculus, BaF3, 72 h, BaF3 cells, EGFR L858R, read-out: GI50 L858R/BaF3): 62 nM; GI50 ([1]; Mus musculus, BaF3, 72 h, EGFR DEL19 - T790M, read-out: GI50 DEL19 - T790M): 3 nM | Cc1cc2cc(n1)-c1cnn(C)c1OCCN1CC3CCC(CC3)(C1)n1c(nc3ccc(N4CC5CCN(C)C5C4)cc31)NC2=O (stereo not drawn) [Example B35]
